Results as given in patent publication US9642854B2, “Flavanoid compounds and process for preparation thereof” (Council of Scientific & Industrial Research, priority 2009, dated 2017).
Values after ≈ are worked out from the molar mass of the structure shown. “Also recorded” adds a separate entry of the source. Read-outs that look alike come from different tables or passages of the source.

Legend:
[1] = test system: H. pylori; experiment: Anti H. pylori spectrum (MIC) by agar dilution method; format: cell-based, Helicobacter pylori; settings: Helicobacter pylori; for MIC50: MIC against 50% of the strains of the panel, read-out: MIC50
Method in brief: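 Agar dilution per CLSI against six clinical isolates and four standard strains on BHI agar with 7% FCS, 0.5% IsoVitalex and DENT. Inoculum ~10^8 CFU/mL; 2-fold compound dilutions from 1.56-100; 72 h microaerophilic at 37 °C. MIC read visually as no growth, in duplicate; MIC50 covers 50% of strains.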

[2] = test system: H. pylori; experiment: Anti H. pylori screening by disc diffusion susceptibility assay; format: cell-based, Helicobacter pylori; settings: 72 h; for Inhibition zone diameter (score): 100 and 200 mg/disc (so in the source)
Method in brief: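 Clinical strains HP001, HP002 and ATCC 700392, 43504, 49503 (10^8 CFU/mL) spread on supplemented BHI agar; 5 mm discs loaded with 100 and 200 […] compound in ethanol or DMSO. Zones read after 72 h microaerophilic growth at 37 °C; scored + (10-20 mm), ++ (20-30 mm), +++ (>30 mm), Nil <10 mm.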

[3] = test system: H. pylori; experiment: MIC and MBC by microbroth dilution assay; format: cell-based, Helicobacter pylori; settings: for MBC / MIC: Helicobacter pylori
Method in brief: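 Two-fold serial dilutions in Mueller Hinton broth with 5% FCS, inoculated with clinical strain HP001 or ATCC 43504 at ~10^6 CFU/mL, incubated 72 h at 37° C under microaerophilic conditions. MIC is the lowest concentration with no visible growth; MBC from streaking growth-free wells onto BHI agar.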

[4] = test system: Swiss albino mice; experiment: Acute toxicity evaluation in mice; format: in vivo; settings: up to 0.5 g/kg body weight orally, 15 days observation
Text: Five animals of Swiss albino mice strain were used for this purpose. The dosage up to 0.5 g/kg body weight given orally per mice and the animals were kept for 15 days under observation. It was observed that the mice were not affected at the dose level of 0.5 g/kg body weight of CPP-1.

[5] = ATCC43504, microbroth dilution, ATCC 43504

O=c1cc(-c2ccccc2)oc2cc(OCCCCCCN3CCCCC3)cc(O)c12 [CPP-1, 5-Hydroxy-2-phenyl-7-(6-piperidin-1-yl-hexyloxy)-chromen-4-one]
MIC50 ([1]; 72 h): ~3.12 µg/mL (≈ 7.41 µM)
MIC ([1]; 72 h, panel of 6 clinical isolates and 4 standard strains, read-out: MIC Range): 3.12 to 25 µg/mL (≈ 7.41 to 59.3 µM)
MIC50 [1]: 3.12 µg/mL (≈ 7.41 µM)
MIC ([1]; clinical strain HP001, read-out: MIC): 6.25 µg/mL (≈ 14.8 µM)
MIC ([1]; clinical strain HP002, read-out: MIC): 6.25 µg/mL (≈ 14.8 µM)
MIC ([1]; clinical strain HP003, read-out: MIC): < 3.12 µg/mL
MIC ([1]; clinical strain HP004, read-out: MIC): < 3.12 µg/mL
MIC ([1]; clinical strain HP005, read-out: MIC): < 3.12 µg/mL
MIC ([1]; clinical strain HP006, read-out: MIC): < 3.12 µg/mL
MIC ([1]; standard strain 43504, read-out: MIC): 6.25 µg/mL (≈ 14.8 µM)
MIC ([1]; standard strain 43629, read-out: MIC): 25 µg/mL (≈ 59.3 µM)
MIC ([1]; standard strain 49503, read-out: MIC): 6.25 µg/mL (≈ 14.8 µM)
MIC ([1]; standard strain 700392, read-out: MIC): 3.12 µg/mL (≈ 7.41 µM)
Inhibition zone diameter (score) ([2]; ATCC standard strain 43504): ++ (20-30 mm as ^++)
Inhibition zone diameter (score) ([2]; ATCC standard strain 49503): +++ (that of >30 mm as ^+++)
Inhibition zone diameter (score) ([2]; ATCC standard strain 700392): ++ (20-30 mm as ^++)
zone of inhibition at 100 µg/disc ([2]; Helicobacter pylori, 100 and 200 μg/disc, majority of the strains, read-out: Activity class by inhibition zone diameter): > 30 mm
Inhibition zone diameter (score) ([2]; clinical strain HP001): ++ (20-30 mm as ^++)
Inhibition zone diameter (score) ([2]; clinical strain HP002): +++ (that of >30 mm as ^+++)
MBC [3, 5]: ~6.25 µg/mL (≈ 14.8 µM)
MIC [3, 5]: ~6.25 µg/mL (≈ 14.8 µM)
MBC ([3]; microbroth dilution, HP001): 12.5 µg/mL (≈ 29.7 µM)
MIC ([3]; microbroth dilution, HP001): 6.25 µg/mL (≈ 14.8 µM)
MBC ([3]; range over strains): 6.25 to 12.5 µg/mL (≈ 14.8 to 29.7 µM)
MIC/MBC dose range ([3]; dose range at which irreversible morphological deformation is induced): 6.25 to 12.5 µg/mL
mortality [4]: did not show any mortality; also recorded: No mortality and behavioral abnormality was noted
